How the values were obtained:
[1] = system: Human immunodeficiency virus 1; test: microbe, parasite or virus in culture; conditions: Human immunodeficiency virus 1, MT2
in vitro [2] = conditions: rat, liver microsomes
Description: Half life in rat liver microsomes at 0.5 uM after 1 hr in presence of NADPH by LC-MS/MS analysis

in vitro [3] = conditions: human, MT2 cells
Description: Cytotoxicity against human MT2 cells assessed as reduction in cell viability

[4] = system: Human immunodeficiency virus 1; test: microbe, parasite or virus in culture; conditions: Human immunodeficiency virus 1, MT2; remark: listed apart in the source
Description: Antiviral activity against wild type HIV1 infected in human MT2 cells after 4 to 5 days by dual luciferase reporter gene assay

[5] = system: Human immunodeficiency virus 1; test: microbe, parasite or virus in culture; conditions: Human immunodeficiency virus 1, MT2; remark: listed apart in the source
Description: Antiviral activity against HIV1 expressing gag delta V370 mutant infected in human MT2 cells after 4 to 5 days by dual luciferase reporter gene assay

in vivo = conditions: Sprague-Dawley, rat, po, 5 mg/kg
in vitro [6] = conditions: human, liver microsomes
Description: Half life in human liver microsomes at 0.5 uM after 1 hr in presence of NADPH by LC-MS/MS analysis

[7] = system: Human immunodeficiency virus 1; test: microbe, parasite or virus in culture; conditions: Human immunodeficiency virus 1, MT2; remark: listed apart in the source
Description: Antiviral activity against wild type HIV1 infected in human MT2 cells after 4 to 5 days in presence of 10% FBS and 40% human serum albumin by dual luciferase reporter gene assay

C=C(C)[C@@H]1CC[C@]2(C(=O)NCCN3CCS(=O)(=O)CC3)CC[C@]3(C)[C@H](CC[C@@H]4[C@@]5(C)CC=C(c6ccc(C(=O)O)cc6)C(C)(C)[C@@H]5CC[C@]43C)[C@@H]12
EC50 [1]: 0.0055 µM | half-life at 1 h, 0.5 µM (in vitro [2]): > 2 h | CC50 (in vitro [3]): 7.9 µM | EC50 [4]: 0.0024 µM | EC50 [5]: 0.0605 µM | AUC(0-t) at 24 h (in vivo): 2.47 µM·h | half-life at 1 h, 0.5 µM (in vitro [6]): > 2 h

C=C(C)[C@@H]1CC[C@]2(NC(=O)OCCN3CCS(=O)(=O)CC3)CC[C@]3(C)[C@H](CC[C@@H]4[C@@]5(C)CC=C(c6ccc(C(=O)O)cc6)C(C)(C)[C@@H]5CC[C@]43C)[C@@H]12
EC50 [1]: 0.0107 µM | half-life at 1 h, 0.5 µM (in vitro [2]): > 2 h | CC50 (in vitro [3]): 9.9 µM | EC50 [4]: 0.0046 µM | EC50 [5]: 0.0939 µM | AUC(0-t) at 24 h (in vivo): 4.97 µM·h | half-life at 1 h, 0.5 µM (in vitro [6]): > 2 h

C=C(C)[C@@H]1CC[C@]2(NCCN3CCN(S(=O)(=O)C(C)C)CC3)CC[C@]3(C)[C@H](CC[C@@H]4[C@@]5(C)CC=C(c6ccc(C(=O)O)cc6)C(C)(C)[C@@H]5CC[C@]43C)[C@@H]12
EC50 [1]: 0.0099 µM | half-life at 1 h, 0.5 µM (in vitro [2]): > 2 h | CC50 (in vitro [3]): 11.9 µM | EC50 [4]: 0.0052 µM | EC50 [5]: 0.0642 µM | half-life at 1 h, 0.5 µM (in vitro [6]): > 2 h

C=C(C)[C@@H]1CC[C@]2(NC(=O)CCN3CCS(=O)(=O)CC3)CC[C@]3(C)[C@H](CC[C@@H]4[C@@]5(C)CC=C(c6ccc(C(=O)O)cc6)C(C)(C)[C@@H]5CC[C@]43C)[C@@H]12
EC50 [1]: 0.0112 µM | half-life at 1 h, 0.5 µM (in vitro [2]): > 2 h | CC50 (in vitro [3]): 16.3 µM | EC50 [4]: 0.0068 µM | EC50 [5]: 0.101 µM | half-life at 1 h, 0.5 µM (in vitro [6]): > 2 h

C=C(C)[C@@H]1CC[C@]2(NCCN3CCC(S(C)(=O)=O)CC3)CC[C@]3(C)[C@H](CC[C@@H]4[C@@]5(C)CC=C(c6ccc(C(=O)O)cc6)C(C)(C)[C@@H]5CC[C@]43C)[C@@H]12
EC50 [1]: 0.0027 µM | half-life at 1 h, 0.5 µM (in vitro [2]): > 2 h | CC50 (in vitro [3]): 13.7 µM | EC50 [4]: 0.0018 µM | EC50 [5]: 0.012 µM | EC50 [7]: 0.0061 µM | half-life at 1 h, 0.5 µM (in vitro [6]): > 2 h

C=C(C)[C@@H]1CC[C@]2(C(=O)NCCC(=O)O)CC[C@]3(C)[C@H](CC[C@@H]4[C@@]5(C)CC=C(c6ccc(C(=O)O)cc6)C(C)(C)[C@@H]5CC[C@]43C)[C@@H]12
half-life at 1 h, 0.5 µM (in vitro [2]): > 2 h | AUC(0-t) at 24 h (in vivo): 79.3 µM·h | half-life at 1 h, 0.5 µM (in vitro [6]): > 2 h

C=C(C)[C@@H]1CC[C@]2(NC(=O)C(C(C)C)N3CCS(=O)(=O)CC3)CC[C@]3(C)[C@H](CC[C@@H]4[C@@]5(C)CC=C(c6ccc(C(=O)O)cc6)C(C)(C)[C@@H]5CC[C@]43C)[C@@H]12 (some centres undefined)
EC50 [1]: 0.0071 µM | half-life at 1 h, 0.5 µM (in vitro [2]): > 2 h | CC50 (in vitro [3]): 23.5 µM | EC50 [4]: 0.0039 µM | EC50 [5]: 0.727 µM | half-life at 1 h, 0.5 µM (in vitro [6]): > 2 h

C=C(C)[C@@H]1CC[C@]2(NCCN3C[C@@H]4C[C@H]3CN4S(C)(=O)=O)CC[C@]3(C)[C@H](CC[C@@H]4[C@@]5(C)CC=C(c6ccc(C(=O)O)cc6)C(C)(C)[C@@H]5CC[C@]43C)[C@@H]12
EC50 [1]: 0.0029 µM | half-life at 1 h, 0.5 µM (in vitro [2]): > 2 h | CC50 (in vitro [3]): 9.3 µM | EC50 [4]: 0.0027 µM | EC50 [5]: 0.0093 µM | AUC(0-t) at 24 h (in vivo): 7.08 µM·h | half-life at 1 h, 0.5 µM (in vitro [6]): > 2 h

C=C(C)[C@@H]1CC[C@]2(NCCN3CCCCS3(=O)=O)CC[C@]3(C)[C@H](CC[C@@H]4[C@@]5(C)CC=C(c6ccc(C(=O)O)cc6)C(C)(C)[C@@H]5CC[C@]43C)[C@@H]12
EC50 [1]: 0.0025 µM | half-life at 1 h, 0.5 µM (in vitro [2]): > 2 h | CC50 (in vitro [3]): 9.53 µM | EC50 [4]: 0.004 µM | EC50 [5]: 0.0368 µM | AUC(0-t) at 24 h (in vivo): 4.24 µM·h | half-life at 1 h, 0.5 µM (in vitro [6]): > 2 h

C=C(C)[C@@H]1CC[C@]2(NCCNC3CCN(S(C)(=O)=O)C3)CC[C@]3(C)[C@H](CC[C@@H]4[C@@]5(C)CC=C(c6ccc(C(=O)O)cc6)C(C)(C)[C@@H]5CC[C@]43C)[C@@H]12 (some centres undefined)
half-life at 1 h, 0.5 µM (in vitro [2]): > 2 h | CC50 (in vitro [3]): 10.7 µM | EC50 [4]: 0.0019 µM | EC50 [7]: 0.0137 µM | half-life at 1 h, 0.5 µM (in vitro [6]): > 2 h

C=C(C)[C@@H]1CC[C@]2(NC(=O)C(C)N3CCS(=O)(=O)CC3)CC[C@]3(C)[C@H](CC[C@@H]4[C@@]5(C)CC=C(c6ccc(C(=O)O)cc6)C(C)(C)[C@@H]5CC[C@]43C)[C@@H]12 (some centres undefined)
EC50 [1]: 0.005 µM | half-life at 1 h, 0.5 µM (in vitro [2]): > 2 h | CC50 (in vitro [3]): > 10 µM | EC50 [4]: 0.0018 µM | EC50 [5]: 0.123 µM | half-life at 1 h, 0.5 µM (in vitro [6]): > 2 h

C=C(C)[C@@H]1CC[C@]2(NC(=O)NCCN3CCS(=O)(=O)CC3)CC[C@]3(C)[C@H](CC[C@@H]4[C@@]5(C)CC=C(c6ccc(C(=O)O)cc6)C(C)(C)[C@@H]5CC[C@]43C)[C@@H]12
EC50 [1]: 0.0049 µM | half-life at 1 h, 0.5 µM (in vitro [2]): > 2 h | CC50 (in vitro [3]): 17.6 µM | EC50 [4]: 0.0059 µM | EC50 [5]: 0.0635 µM | half-life at 1 h, 0.5 µM (in vitro [6]): > 2 h

C=C(C)[C@@H]1CC[C@]2(NCCN3CC4C(C3)C4NS(C)(=O)=O)CC[C@]3(C)[C@H](CC[C@@H]4[C@@]5(C)CC=C(c6ccc(C(=O)O)cc6)C(C)(C)[C@@H]5CC[C@]43C)[C@@H]12 (some centres undefined)
half-life at 1 h, 0.5 µM (in vitro [2]): > 2 h | CC50 (in vitro [3]): 15.2 µM | EC50 [4]: 0.0028 µM | EC50 [5]: 0.018 µM | EC50 [7]: 0.0213 µM | half-life at 1 h, 0.5 µM (in vitro [6]): > 2 h

C=C(C)[C@@H]1CC[C@]2(NCCN3CC4(C3)CN(S(C)(=O)=O)C4)CC[C@]3(C)[C@H](CC[C@@H]4[C@@]5(C)CC=C(c6ccc(C(=O)O)cc6)C(C)(C)[C@@H]5CC[C@]43C)[C@@H]12
half-life at 1 h, 0.5 µM (in vitro [2]): > 2 h | CC50 (in vitro [3]): 12 µM | EC50 [4]: 0.0016 µM | EC50 [5]: 0.0133 µM | EC50 [7]: 0.0074 µM | half-life at 1 h, 0.5 µM (in vitro [6]): > 2 h

C=C(C)[C@@H]1CC[C@]2(NCCN3CCC4(C3)CN(S(C)(=O)=O)C4)CC[C@]3(C)[C@H](CC[C@@H]4[C@@]5(C)CC=C(c6ccc(C(=O)O)cc6)C(C)(C)[C@@H]5CC[C@]43C)[C@@H]12
half-life at 1 h, 0.5 µM (in vitro [2]): > 2 h | CC50 (in vitro [3]): 11 µM | EC50 [4]: 0.0017 µM | EC50 [5]: 0.0114 µM | EC50 [7]: 0.0245 µM | half-life at 1 h, 0.5 µM (in vitro [6]): > 2 h

C=C(C)[C@@H]1CC[C@]2(NCCN3CCN(S(=O)(=O)CC)CC3)CC[C@]3(C)[C@H](CC[C@@H]4[C@@]5(C)CC=C(c6ccc(C(=O)O)cc6)C(C)(C)[C@@H]5CC[C@]43C)[C@@H]12
EC50 [1]: 0.0102 µM | half-life at 1 h, 0.5 µM (in vitro [2]): > 2 h | CC50 (in vitro [3]): 13.4 µM | EC50 [4]: 0.0037 µM | EC50 [5]: 0.0196 µM | half-life at 1 h, 0.5 µM (in vitro [6]): > 2 h

C=C(C)[C@@H]1CC[C@]2(NCCC3CCS(=O)(=O)CC3)CC[C@]3(C)[C@H](CC[C@@H]4[C@@]5(C)CC=C(c6ccc(C(=O)O)cc6)C(C)(C)[C@@H]5CC[C@]43C)[C@@H]12
half-life at 1 h, 0.5 µM (in vitro [2]): > 2 h | CC50 (in vitro [3]): 4.55 µM | EC50 [4]: 0.0037 µM | EC50 [7]: 0.0375 µM | half-life at 1 h, 0.5 µM (in vitro [6]): > 2 h

C=C(C)[C@@H]1CC[C@]2(NCCNC3CCS(=O)(=O)C3)CC[C@]3(C)[C@H](CC[C@@H]4[C@@]5(C)CC=C(c6ccc(C(=O)O)cc6)C(C)(C)[C@@H]5CC[C@]43C)[C@@H]12 (some centres undefined)
EC50 [1]: 0.0037 µM | half-life at 1 h, 0.5 µM (in vitro [2]): > 2 h | CC50 (in vitro [3]): 11.1 µM | EC50 [4]: 0.0022 µM | EC50 [5]: 0.0116 µM | EC50 [7]: 0.0159 µM | half-life at 1 h, 0.5 µM (in vitro [6]): > 2 h

Reference: ChEMBL document CHEMBL4152347 (J Med Chem, 2018)
